Laboratory results reported in PubChem BioAssay (NCI).
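Assay format: 96-well plates, 48-hour exposure. TGI: total growth inhibition.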

Columns and labels:
Test in all cases: NCI-60 cell line screen, 48 h
HS 578T breast = system: HS 578T breast
SF-295 CNS = system: SF-295 CNS
A549 NSCLC = system: A549 NSCLC
SNB-19 CNS = system: SNB-19 CNS
UACC-257 melanoma = system: UACC-257 melanoma
SK-MEL-28 melanoma = system: SK-MEL-28 melanoma
TK-10 renal = system: TK-10 renal
SF-268 CNS = system: SF-268 CNS
COLO 205 colon = system: COLO 205 colon
NCI-H23 lung = system: NCI-H23 lung

Measured: TGI

COC(=O)[C@H](Cc1ccccc1)NC(=O)[C@H](Cc1ccccc1)NC(=O)[C@@H]1CCCN1C(=O)N[C@H]1C2C=CC(C2)C1C(=O)N1CCC[C@H]1C(=O)N[C@@H](C)C(=O)N[C@H](C(=O)OC)C(C)C (stereo not given in full)
> 100 µM: HS 578T breast | SF-295 CNS | A549 NSCLC | SNB-19 CNS | UACC-257 melanoma | SK-MEL-28 melanoma | TK-10 renal | SF-268 CNS | COLO 205 colon | NCI-H23 lung

N#Cc1nc(-c2cccs2)oc1N
> 100 µM: HS 578T breast | SF-295 CNS | A549 NSCLC | SNB-19 CNS | UACC-257 melanoma | SK-MEL-28 melanoma | TK-10 renal | SF-268 CNS | COLO 205 colon | NCI-H23 lung
